Assay results published in article PMC6382696, “Drug Repurposing: The Anthelmintics Niclosamide and Nitazoxanide Are Potent TMEM16A Antagonists That Fully Bronchodilate Airways” (Frontiers in Pharmacology, 2019).
Read-outs that look alike come from different tables or passages of the source.

Legend:
[1] = molecular target: T1, TMEM16A (acd) (Homo sapiens, UniProt Q5XXA6); assay: QPatch whole-cell electrophysiology, HEK293 TMEM16A (acd); format: cell-based; settings: QPatch
T1 sequence (Q5XXA6 1-986): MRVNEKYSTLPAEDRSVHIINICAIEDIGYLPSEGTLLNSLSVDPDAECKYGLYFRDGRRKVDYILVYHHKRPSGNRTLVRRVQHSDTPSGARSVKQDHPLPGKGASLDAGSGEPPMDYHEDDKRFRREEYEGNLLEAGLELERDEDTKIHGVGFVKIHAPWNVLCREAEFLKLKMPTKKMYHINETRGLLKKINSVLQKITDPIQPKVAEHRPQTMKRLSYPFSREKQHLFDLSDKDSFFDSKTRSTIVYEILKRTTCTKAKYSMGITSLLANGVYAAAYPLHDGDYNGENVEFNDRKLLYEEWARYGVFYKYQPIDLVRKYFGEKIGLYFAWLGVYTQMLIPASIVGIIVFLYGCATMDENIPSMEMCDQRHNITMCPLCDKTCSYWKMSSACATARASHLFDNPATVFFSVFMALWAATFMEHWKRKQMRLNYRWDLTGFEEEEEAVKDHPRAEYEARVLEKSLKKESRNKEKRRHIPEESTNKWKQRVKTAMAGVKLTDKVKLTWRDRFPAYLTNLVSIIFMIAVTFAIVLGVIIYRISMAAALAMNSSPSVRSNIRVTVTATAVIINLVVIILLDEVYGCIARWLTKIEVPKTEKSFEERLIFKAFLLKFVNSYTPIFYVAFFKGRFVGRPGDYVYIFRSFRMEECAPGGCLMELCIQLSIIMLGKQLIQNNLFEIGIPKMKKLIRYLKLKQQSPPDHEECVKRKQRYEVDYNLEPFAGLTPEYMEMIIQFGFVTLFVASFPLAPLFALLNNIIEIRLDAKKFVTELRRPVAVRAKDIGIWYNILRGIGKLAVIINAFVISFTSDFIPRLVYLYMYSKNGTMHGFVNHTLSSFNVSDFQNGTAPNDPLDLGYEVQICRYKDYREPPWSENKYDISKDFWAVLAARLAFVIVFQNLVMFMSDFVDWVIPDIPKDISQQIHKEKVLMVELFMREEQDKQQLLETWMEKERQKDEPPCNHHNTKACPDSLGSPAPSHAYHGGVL
Text: HEK293 cells stably expressing the TMEM16A (acd) variant were purchased from SB Drug Discovery. The HEK293 TMEM16A (abc) stable cell line was from ChanTest and COLO-205 cells were purchased from ATCC. The same standard buffers and recording conditions listed below were used for QPatch studies on all three cell lines.
Recording Solutions: were made weekly as below and stored at room temperature until used. It is recommended not to add ATP to internal solution until immediately before using on the QPatch. The external buffer (in mM) was 140 NaCl, 4 KCl, 2 CaCl2, 1 MgCl2, 10 HEPES, 10 Glucose, pH7.4, while the internal buffer (in mM) was 110 CsCl, 20 TEA-Cl, 5.374 CaCl2, 1.75 MgCl2, 10 EGTA, 10 HEPES, 4 Na2ATP, pH 7.2.
Once established in whole-cell configuration, cells were clamped to a holding potential (Vhold) of 0 mV on 48 well single hole patch plate. A standardized IV protocol was used to elicit ionic current through the TMEM16A chloride channel at 20 s intervals. Steady-state voltage pulses were from −100 mV to +100 mV in +20 mV steps for a duration of 500 ms. After each pulse the voltage was returned to −100 mV for 50 ms to obtain tail currents, and then returned to the holding potential of 0 mV until the beginning of the next sweep. […] This ensures a minimum of 60 s per concentration incubation before measuring current block. Currents were acquired at 10 kHz and filtered at 2 kHz, leak subtraction and Rseries were disabled. A 1 MΩ minimum resistance was set because cells are held in an open channel state and therefore resistance is low.
A cumulative concentration response was measured where each cell is exposed to five concentrations of test article with a dilution factor of 1:5 (e.g., 0.048, 0.24, 1.2, 6, and 30 μM). Cells were recorded for ∼60 s per solution/compound addition. Initially, external solution is applied twice to allow currents to stabilize. Then vehicle (from the saline reservoir) is added twice to monitor any effect 0.3% DMSO might have on currents. This leads directly into the concentration runs by applying Concentration 1 (single addition) for 1 min. Concentration 2 is then applied for the subsequent minute, etc. Recovery/washout was monitored for a final minute with a final external solution addition.
[…] […] Each cell’s current magnitude was then normalized to itself at the initial 0.3% vehicle control period prior to compound application. This step is to account for differences in current size for each cell. Normalized responses to test article were plotted against their concentrations to reveal a concentration-inhibition plot.
A Normalized Group Hill fit was then performed on the plotted results to yield a pooled IC50 value, reconstructed from a minimum of two cells/concentration. The baseline response as well as the full response were constrained to 1 and 0, respectively.

[2] = molecular target: T2, hTMEM16A (abc) (Homo sapiens, UniProt Q5XXA6, DEL476-501); assay: medchem TMEM16A halide-sensitive YFP assay, 22-point dose-response; format: cell-based; parameters: expressed in transfected cells
T2 sequence (Q5XXA6 with tags, fused parts or gaps isoform Q5XXA6-5 DEL539-564): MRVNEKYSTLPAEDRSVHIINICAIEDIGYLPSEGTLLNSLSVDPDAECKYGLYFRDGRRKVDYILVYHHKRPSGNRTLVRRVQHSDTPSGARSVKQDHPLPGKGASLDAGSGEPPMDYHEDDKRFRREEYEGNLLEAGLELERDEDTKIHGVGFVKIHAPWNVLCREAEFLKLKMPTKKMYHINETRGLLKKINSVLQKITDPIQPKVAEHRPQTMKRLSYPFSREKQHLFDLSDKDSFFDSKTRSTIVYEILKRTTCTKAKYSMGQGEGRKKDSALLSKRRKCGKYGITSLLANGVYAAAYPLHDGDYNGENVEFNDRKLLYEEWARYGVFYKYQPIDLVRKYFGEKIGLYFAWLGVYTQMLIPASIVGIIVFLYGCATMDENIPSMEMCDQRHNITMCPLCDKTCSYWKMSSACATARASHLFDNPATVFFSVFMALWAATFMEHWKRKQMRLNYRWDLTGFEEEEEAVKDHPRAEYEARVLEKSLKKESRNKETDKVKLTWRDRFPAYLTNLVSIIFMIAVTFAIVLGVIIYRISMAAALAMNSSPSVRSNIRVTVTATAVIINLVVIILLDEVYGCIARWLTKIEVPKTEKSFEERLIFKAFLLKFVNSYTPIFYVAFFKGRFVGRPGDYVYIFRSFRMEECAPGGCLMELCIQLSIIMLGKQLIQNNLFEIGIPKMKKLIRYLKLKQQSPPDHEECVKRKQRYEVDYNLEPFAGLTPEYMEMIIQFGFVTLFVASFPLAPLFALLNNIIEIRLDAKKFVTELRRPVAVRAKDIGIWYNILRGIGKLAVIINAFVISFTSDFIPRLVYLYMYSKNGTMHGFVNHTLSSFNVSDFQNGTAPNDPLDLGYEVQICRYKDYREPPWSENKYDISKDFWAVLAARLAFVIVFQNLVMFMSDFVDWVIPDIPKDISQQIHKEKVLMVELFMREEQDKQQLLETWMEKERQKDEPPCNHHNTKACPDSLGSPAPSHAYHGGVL
Description: The TMEM16A HEK293T eYFP (H149Q, I153L) stable cell line for medchem support was generated by transfecting 10 μg of linearized hTMEM16A(abc) DNA constructs into HEK293T eYFP (H149Q,I153L) stable cells. The transfected cells were cultured under 200 μg/ml of hygromycin B selection for 20 days and the stable pool was single cell seeded in 96 well plate and duplicated plate were made after single cell clones were formed. YFP function assay were performed on duplicated plate and clones producing higher changes in fluorescence from the YFP assay were chosen for further expansion to form a stable cell line.
Plates were incubated for 24 h at 37°C with 5% CO2. On the assay day, medium was removed and replaced with 20 μl/well of assay buffer (Hank’s Balanced Salt Solution with 10 mM HEPES pH 7.4), 10 μl/well of 40x diluted compounds was added to assay plate and it was incubated at room temperature for 30 min, after which baseline fluorescence was read in the FLIPR instrument for 10 s. Then, 5 μl/well of a 3x trigger solution (24 mM iodide, 3 μM ionomycin in assay buffer) was added and the fluorescence kinetic trace was recorded for 2 min.

[3] = system: cytochrome P450 enzymes; parameters: method as in White, 2004; Anderson and Curran, 2007; Rossignol, 2014; settings: ref White, 2004; Anderson and Curran, 2007; Rossignol, 2014; cited from earlier work
[4] = system: human bronchial epithelial ALI cultures; assay: Muc5AC secretion from human bronchial epithelial ALI cultures; format: cell-based; settings: 5 μM, 72 hours, p < 0.05
Description: (§1) 1.2 Effects of the TMEM16A opener Eact on leukotriene secretion and Muc5AC mucin production from human bronchial epithelial air-liquid interface cultures.
(§2) Normal, asthma and COPD human bronchial epithelial (HBE) cells were from Lonza (Walkersville, MD). Cells were grown on […] transparent PET transwell membranes insert (BD biosciences, San Diego). S-ALI air-liquid interface media (Lonza) was changed every other day until the cells reached confluence, at which time the apical medium was removed to establish an air liquid interface cultures. The basolateral medium was changed every other day. All experimentation was carried out on day 14-18 after ALI establishment. At this point, mature secretory cells are present in these differentiating cultures and the cells respond with maximal […] to IL-13 (10 ng/ml) (Peprotech, […]
(§3) Human ALI cultures from a normal donor were treated with Eact, Eact vehicle and 10 ng/ml IL13 in basolateral medium for 48 hrs.
(§4) After 48hr, 100 µl of basolateral medium were collected for determining leukotriene B4 and C4 secretion using ELISA kits from Enzo Life Sciences, Inc. and LSBio LifeSpan Biosciences Inc., respectively, and by following manufacture’s protocols. […]
(§5) Levels of Muc5AC protein in apical washes was then determined using a Muc5AC ELISA kit (Cosmo Bio USA, Carlsbad, CA) and following the manufacture’s protocol.

[5] = system: TMEM16A; settings: ref Namkung et al., 2011; read-out: EC50 in activating TMEM16A; cited from earlier work
[6] = system: human bronchial epithelial ALI cultures; assay: Leukotriene (LTC4, LTB4) secretion from human bronchial epithelial ALI cultures; format: cell-based; settings: 48 hrs, p < 0.05
Description: as §1, §2, §3, §4, §5

[7] = system: human ASM cells; assay: Eact-induced depolarization of human ASM cells (FLIPR membrane potential); format: cell-based
Text: While the method above using histamine represents the standard protocol we used to evaluate compound effects in blocking pro-contractile depolarization of human BSMCs, for some experiments provided as Supplementary Figures 1–44 we employed the cholinergics methacholine or carbachol instead of histamine, or evaluated if the TMEM16A opener, Eact, could itself act like contractants to induce BSMC membrane depolarization.
3.31 Supplementary Figure 31
Supplementary Figure 31. The small molecule TMEM16A activator, Eact , induces depolarization of primary human airway smooth muscle cells like the contractant carbachol. Kinetic traces from the FLIPR membrane potential assay indicate Eact (A) and carbachol (B) elicit a concentration dependent depolarization of human ASM cells which were serum starved for 4 hours [prf SmGM overnight + 4h prf SmBM]. The potency for Eact depolarization of ASM cells isolated from a normal, asthmatic or COPD patient is shown in panel (C). The […]
report for activation of TMEM16A. RFU, relative fluorescence units. AUC, area under the curve.
(also on this page, place not known: ‘Eact’ Carbachol TMEM16A 3.0 µM A B C)
(1 picture or pasted object on this page, not shown here)

[8] = system: airways; parameters: method as in Stocks et al., 2014; settings: ref Stocks et al., 2014; cited from earlier work

In the case of `CC(=O)Oc1ccccc1C(=O)Nc1ncc([N+](=O)[O-])s1` [Nitazoxanide], the IC50 ([1]; outward current at +100 mV, 170 nM free intracellular calcium, ~60 s per concentration, read-out: TMEM16A Chloride Current (IC50)) is reported as 1260 ± 1310 nM, the “calcium-activated chloride current inhibited” value ([1]; maximum antagonist activity) is reported as “Over 80%” and the IC50 ([2]; average, 22-point dose-response, iodide as permeant anion, read-out: TMEM16A eYFP Assay (IC50)) is reported as 1230 nM. The “scope of block of ionomycin-induced iodide eYFP quenching” value ([2]; up to 55.6 μM) was “partially inhibiting” and the “impact on cytochrome P450 enzymes” value [3] was “no significant impact”.

For `COCCN(C(=O)c1cc(OC)c(OC)c(OC)c1)c1nc(-c2ccccc2)cs1` [Eact], the “increase of Muc5AC secretion” value [4] is given as 2–3 fold, the EC50 [5] is given as 3000 nM and the “increase of leukotriene (LTC4, LTB4) secretion” value [6] is given as 6–12 fold. It also gave an EC50 ([7]; cells from normal, asthmatic or COPD patient, read-out: average EC50 for depolarizing human ASM cells) of 1000 to 3000 nM and an EC50 ([7]; read-out: average EC50 for Eact induced ASM depolarization) of 1600 nM.

In the case of `OCc1cc(C(O)CNCCCCCCOCCCCc2ccccc2)ccc1O` (centres unmarked) [Salmeterol, salmeterol], the onset of action [8] is listed as 90 min.
